Experimental data reported in patent US8426447B2, “Spiro-tricyclic ring compounds as beta-secretase modulators and methods of use” (Amgen Inc., priority 2008, dated 2013).

Target: BACE1 (Homo sapiens, UniProt P56817)
Assay: In Vitro Enzymatic BACE FRET (Fluorescence Resonance Energy Transfer) Assay
Type: biochemical
Settings: Table 1; read-out: BACE1 FRET assay
Method: In Vitro Enzymatic BACE FRET (Fluorescence Resonance Energy Transfer) Assay (Enzyme Assay Data in the Example Tables I, II, III & IV) The assay buffer used in this screen is 0.05 M acetate, pH 4.2, 10% DMSO final, 100 uM genapol (which is a nonionic detergent, below its Critical Micelle Concentration). […] This assay is effectively started by the addition of FRET substrate (50 nM) and the combination is incubated for one hour. The FRET assay is terminated with by addition of Tris buffer, which raises the pH to neutrality, and the fluorescence is determined. The FRET substrate is a peptide with commercially available fluorophore and quencher, on opposite sides of the BACE cleavage site. […]

Sequence of BACE1 (P56817 46-501, species assumed): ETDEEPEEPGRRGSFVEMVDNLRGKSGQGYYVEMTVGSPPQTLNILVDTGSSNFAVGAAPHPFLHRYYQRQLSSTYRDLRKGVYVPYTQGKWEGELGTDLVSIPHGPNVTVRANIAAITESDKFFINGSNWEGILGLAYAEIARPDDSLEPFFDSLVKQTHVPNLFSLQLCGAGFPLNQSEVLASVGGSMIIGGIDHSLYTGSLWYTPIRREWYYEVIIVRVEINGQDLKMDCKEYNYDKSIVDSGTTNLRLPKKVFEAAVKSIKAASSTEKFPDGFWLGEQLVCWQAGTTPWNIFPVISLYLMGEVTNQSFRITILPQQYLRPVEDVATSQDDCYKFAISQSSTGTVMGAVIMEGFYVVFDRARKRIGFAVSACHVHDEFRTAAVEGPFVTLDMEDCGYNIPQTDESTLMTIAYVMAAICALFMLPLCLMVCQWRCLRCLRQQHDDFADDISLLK

| SMILES | IC50 [µM] |
| --- | --- |
| NC1=NC2(CO1)c1cc(Cl)ccc1Oc1ccc(-c3cncnc3)cc12 (centres unmarked) [Example 13, 2′-chloro-7′-(5-pyrimidinyl)spiro[1,3-oxazole-4,9′-xanthen]-2-amine] | 0.1 to 1 |
| Cc1ccc2c(c1)Oc1ccc(-c3ccc(OC(F)(F)F)cc3)cc1C21COC(N)=N1 (centres unmarked) [Example 36, 6′-methyl-2′-(4-(trifluoromethoxy)phenyl)spiro[1,3-oxazole-4,9′-xanthen]-2-amine] | > 5 |
| Cc1cccc(-c2ccc3c(c2)C2(COC(N)=N2)c2ccc(C)cc2O3)c1 (centres unmarked) [Example 33, 6′-methyl-2′-(3-methylphenyl)spiro[1,3-oxazole-4,9′-xanthen]-2-amine] | > 5 |
| Cc1ccc2c(c1)Oc1ccc(-c3ccccc3C)cc1C21COC(N)=N1 (centres unmarked) [Example 34, 6′-methyl-2′-(2-methylphenyl)spiro[1,3-oxazole-4,9′-xanthen]-2-amine] | > 5 |
| COc1ccc2c(c1)[C@@]1(COC(N)=N1)c1cc(-c3cncnc3)ccc1O2 [Example 31, (4R)-2′-methoxy-7′-(5-pyrimidinyl)spiro[1,3-oxazole-4,9′-xanthen]-2-amine] | > 5 |

Same assay, conditions: Table II; read-out: BACE1 FRET assay

| SMILES | IC50 [µM] |
| --- | --- |
| CC(C)(C)C[C@H](O)c1ccc2c(c1)[C@]1(COC(N)=N1)c1cc(-c3cncnc3)ccc1O2 [Example 49, (1S)-1-((4S)-2-amino-7′-(5-pyrimidinyl)spiro[1,3-oxazole-4,9′-xanthen]-2′-yl)-3,3-dimethyl-1-butanol] | < 0.1 |
| NC1=N[C@]2(CO1)c1cc(OC[C@H]3CC3(F)F)ccc1Oc1ccc(-c3cncnc3)cc12 [Example 98, (4S)-2′-(((1R)-2,2-difluorocyclopropyl)methoxy)-7′-(5-pyrimidinyl)spiro[1,3-oxazole-4,9′-xanthen]-2-amine] | < 0.1 |
| NC1=N[C@@]2(CO1)c1cc(C#CC3CC3)ccc1Oc1ccc(OCC3CCCO3)cc12 (stereo partly drawn) [Example 103, (4S)-2′-(cyclopropylethynyl)-7′-(tetrahydro-2-furanylmethoxy)spiro[1,3-oxazole-4,9′-xanthen]-2-amine] | < 0.1 |
| NC1=N[C@]2(CO1)c1cc(OCC3CCCCO3)ccc1Oc1ccc(-c3cncnc3)cc12 (stereo partly drawn) [Example 107, (4S)-2′-(5-pyrimidinyl)-7′-(tetrahydro-2H-pyran-2-ylmethoxy)spiro[1,3-oxazole-4,9′-xanthen]-2-amine] | < 0.1 |
| NC1=N[C@]2(CO1)c1cc(OC[C@@H]3CCCO3)ccc1Oc1ccc(-c3cncnc3)cc12 [Example 105, (4S)-2′-(5-pyrimidinyl)-7′-((2S)-tetrahydro-2-furanylmethoxy)spiro[1,3-oxazole-4,9′-xanthen]-2-amine] | < 0.1 |
| NC1=N[C@]2(CO1)c1cc(OC[C@H]3CCCO3)ccc1Oc1ccc(-c3cncnc3)cc12 [Example 106, (4S)-2′-(5-pyrimidinyl)-7′-((2R)-tetrahydro-2-furanylmethoxy)spiro[1,3-oxazole-4,9′-xanthen]-2-amine] | < 0.1 |
| NC1=N[C@]2(CO1)c1cc(OC[C@@H]3CC3(F)F)ccc1Oc1ccc(-c3cncnc3)cc12 [Example 97, (4S)-2′-(((1S)-2,2-difluorocyclopropyl)methoxy)-7′-(5-pyrimidinyl)spiro[1,3-oxazole-4,9′-xanthen]-2-amine] | < 0.1 |

Same assay, conditions: in vitro BACE FRET enzyme assay, IC50 class symbols; read-out: BACE1 FRET assay

| SMILES | IC50 [µM] |
| --- | --- |
| COc1ccc2c(c1)[C@@]1(COC(N)=N1)c1cc(N3CCOCC3)cc(F)c1O2 [compound 304] | 0.1 to 1 |
| NC1=N[C@@]2(CO1)c1cc(-c3cccnc3F)ccc1Oc1cnc(-c3ccc(F)nc3)cc12 [compound 312] | < 0.1 |
| NC1=N[C@@]2(CO1)c1cc(-c3c(F)ccnc3F)ccc1Oc1ncc(C3=CCOCC3)cc12 [compound 321] | < 0.1 |
| NC1=N[C@@]2(CO1)c1cc(-c3cncc(Cl)c3)ccc1Oc1cnc(C3=CCOCC3)cc12 [compound 309] | < 0.1 |
| NC1=N[C@@]2(CO1)c1cc(-c3cncc(Cl)c3)ccc1Oc1cnc(-c3ccncc3)cc12 [compound 302] | < 0.1 |
| NC1=N[C@@]2(CO1)c1cc(-c3cccc(Cl)c3)ccc1Oc1ncc(C3=CCOCC3)cc12 [compound 322] | < 0.1 |
| CC1(C#Cc2cnc3c(c2)[C@]2(COC(N)=N2)c2cc(-c4cccnc4)ccc2O3)COC1 [compound 315] | < 0.1 |
| Cc1cncc(-c2ccc3c(c2)[C@@]2(COC(N)=N2)c2cc(-c4cccnc4)ncc2O3)c1 [compound 306] | < 0.1 |
| CC(C)(C#N)COc1ccc2c(c1)[C@@]1(COC(N)=N1)c1cc(-c3ccc(OC(F)(F)F)cc3)cnc1O2 [compound 342] | < 0.1 |
| NC1=N[C@@]2(CO1)c1cc(-c3ccc(F)nc3)ccc1Oc1cnc(Cl)cc12 [compound 310] | 0.1 to 1 |

Results, then the compound that gave them:

| IC50 [µM] | SMILES |
| --- | --- |
| < 0.1 | NC1=N[C@@]2(CO1)c1cc(-c3cncc(Cl)c3)ccc1Oc1cnc(-c3cccnc3)cc12 [compound 303] |
| < 0.1 | CC(C)(C#Cc1cnc2c(c1)[C@]1(COC(N)=N1)c1cc(-c3cccnc3)ccc1O2)N1CCC1 [compound 320] |
| < 0.1 | COc1ccc(-c2cnc3c(c2)[C@]2(COC(N)=N2)c2cc(-c4cccnc4F)ccc2O3)cn1 [compound 344] |
| < 0.1 | Cc1cc(-c2cc3c(cn2)Oc2ccc(-c4ccc(F)nc4)cc2[C@@]32COC(N)=N2)ccn1 [compound 313] |
| < 0.1 | CC(C)(C)C#Cc1cnc2c(c1)[C@]1(COC(N)=N1)c1cc(OCC(C)(C)C#N)ccc1O2 [compound 319] |
| < 0.1 | CC(C)(C)C#Cc1cnc2c(c1)[C@]1(COC(N)=N1)c1cc(-c3cccc(C#N)c3)ccc1O2 [compound 318] |
| < 0.1 | Cc1cncc(-c2ccc3c(c2)[C@@]2(COC(N)=N2)c2cc(-c4ccncc4)ncc2O3)c1 [compound 305] |
| < 0.1 | Cc1cncc(-c2ccc3c(c2)[C@@]2(COC(N)=N2)c2cc(-c4ccnc(C)c4)ncc2O3)c1 [compound 307] |
| < 0.1 | CC1(C)CCN(c2cnc3c(c2)[C@]2(COC(N)=N2)c2cc(-c4cccnc4F)ccc2O3)C1 [compound 316] |
| < 0.1 | Cc1ccc(-c2cnc3c(c2)[C@]2(COC(N)=N2)c2cc(-c4cccnc4F)ccc2O3)cn1 [compound 339] |
| < 0.1 | Cc1cncc(-c2ccc3c(c2)[C@@]2(COC(N)=N2)c2cc(C4CCOCC4)ncc2O3)c1 [compound 308] |
| < 0.1 | COc1ccc(-c2cnc3c(c2)[C@]2(COC(N)=N2)c2cc(OCC(C)(C)C#N)ccc2O3)cn1 [compound 341] |
| < 0.1 | CC(C)(C#N)COc1ccc2c(c1)[C@@]1(COC(N)=N1)c1cc(-c3ccc(C#N)cc3)cnc1O2 [compound 340] |
| < 0.1 | NC1=N[C@@]2(CO1)c1cc(-c3cccc(Cl)c3)ccc1Oc1ncc(-c3ccncc3)cc12 [compound 345] |
| < 0.1 | CC1(C#Cc2cnc3c(c2)[C@]2(COC(N)=N2)c2cc(-c4cccc(Cl)c4)ccc2O3)COC1 [compound 314] |
| < 0.1 | CC(C)(C)C#Cc1cnc2c(c1)[C@]1(COC(N)=N1)c1cc(-c3cncc(C#N)c3)ccc1O2 [compound 317] |
| < 0.1 | CC(C)(C)COc1cnc2c(c1)[C@]1(COC(N)=N1)c1cc(C#CC3(C)COC3)ccc1O2 [compound 323] |
| < 0.1 | Cn1cc(-c2cnc3c(c2)[C@]2(COC(N)=N2)c2cc(-c4cccnc4F)ccc2O3)cn1 [compound 346] |
| < 0.1 | NC1=N[C@@]2(CO1)c1cc(-c3ccc(F)nc3)ccc1Oc1cnc(-c3ccnc(F)c3)cc12 [compound 311] |
